Key:
[1] = molecular target: von Hippel-Lindau disease tumor suppressor/Mitogen-activated protein kinase 14 (Homo sapiens, UniProt P40337+Q16539); assay: Protac activity at E3 ubiquitin ligase/p38alpha in human MDA-MB-231 cells assessed as p38alpha degradation after 4 hrs by ELISA; type: cell-based
[2] = molecular target: von Hippel-Lindau disease tumor suppressor/Mitogen-activated protein kinase 14 (Homo sapiens) (UniProt Q16539+P40337); assay: Protac activity at E3 ubiquitin ligase/p38alpha in human MDA-MB-231 cells assessed as p38alpha degradation after 4 hrs by ELISA relative to control; type: cell-based
Sequence of von Hippel-Lindau disease tumor suppressor/Mitogen-activated protein kinase 14 (Homo sapiens) (P40337 whole entry partner): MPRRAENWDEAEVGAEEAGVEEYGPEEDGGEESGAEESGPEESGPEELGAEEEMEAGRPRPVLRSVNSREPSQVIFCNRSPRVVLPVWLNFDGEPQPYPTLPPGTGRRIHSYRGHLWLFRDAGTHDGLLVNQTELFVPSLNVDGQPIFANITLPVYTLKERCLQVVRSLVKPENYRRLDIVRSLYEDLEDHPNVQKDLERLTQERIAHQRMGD
Sequence of von Hippel-Lindau disease tumor suppressor/Mitogen-activated protein kinase 14 (Homo sapiens) (Q16539 2-360 limits assumed): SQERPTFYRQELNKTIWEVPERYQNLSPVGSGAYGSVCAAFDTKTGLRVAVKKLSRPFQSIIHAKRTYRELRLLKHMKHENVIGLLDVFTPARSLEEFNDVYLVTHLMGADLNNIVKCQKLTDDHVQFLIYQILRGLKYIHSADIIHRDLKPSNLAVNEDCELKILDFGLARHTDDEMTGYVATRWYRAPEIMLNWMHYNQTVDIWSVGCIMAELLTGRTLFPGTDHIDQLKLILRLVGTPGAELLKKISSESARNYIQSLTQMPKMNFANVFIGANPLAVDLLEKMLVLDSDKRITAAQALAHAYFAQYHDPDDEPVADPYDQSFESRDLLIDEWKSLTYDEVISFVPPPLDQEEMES

Sequence of von Hippel-Lindau disease tumor suppressor/Mitogen-activated protein kinase 14 (Q16539 whole entry): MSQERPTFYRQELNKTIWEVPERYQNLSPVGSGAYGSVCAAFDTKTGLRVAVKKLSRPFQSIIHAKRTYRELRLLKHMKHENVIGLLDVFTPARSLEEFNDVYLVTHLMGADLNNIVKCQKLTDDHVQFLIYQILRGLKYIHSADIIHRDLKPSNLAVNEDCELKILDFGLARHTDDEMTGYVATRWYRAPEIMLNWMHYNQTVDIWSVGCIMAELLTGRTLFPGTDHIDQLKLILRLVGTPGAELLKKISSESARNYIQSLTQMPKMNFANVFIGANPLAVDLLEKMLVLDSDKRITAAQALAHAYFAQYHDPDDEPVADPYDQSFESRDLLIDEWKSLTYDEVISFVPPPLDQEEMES
Sequence of von Hippel-Lindau disease tumor suppressor/Mitogen-activated protein kinase 14 (P40337 whole entry): as the sequence (P40337 whole entry partner) above

Row | SMILES | IC50 [1] [nM] | Emax [2] [%]
1 | COc1cc2c(Oc3ccc(NC(=O)C4(C(=O)Nc5ccc(F)cc5)CC4)cc3F)ccnc2cc1OCCCOCCOCCC(=O)N[C@H](C(=O)N1C[C@H](O)C[C@H]1C(=O)NCc1ccc(-c2scnc2C)cc1)C(C)(C)C | 18.8 | 91
2 | COc1cc2c(Oc3ccc(NC(=O)C4(C(=O)Nc5ccc(F)cc5)CC4)cc3F)ccnc2cc1OCCCOCCCOCCC(=O)N[C@H](C(=O)N1C[C@H](O)C[C@H]1C(=O)NCc1ccc(-c2scnc2C)cc1)C(C)(C)C | 50 | 95
3 | COc1cc2c(Oc3ccc(NC(=O)C4(C(=O)Nc5ccc(F)cc5)CC4)cc3F)ccnc2cc1OCCOCCOCCC(=O)N[C@H](C(=O)N1C[C@H](O)C[C@H]1C(=O)NCc1ccc(-c2scnc2C)cc1)C(C)(C)C | 40.1 | 81
